Molecular target: T1, phi3T AimR receptor (Bacillus phage phi3T, UniProt P0DOE3)
T1 sequence (P0DOE3 1-378): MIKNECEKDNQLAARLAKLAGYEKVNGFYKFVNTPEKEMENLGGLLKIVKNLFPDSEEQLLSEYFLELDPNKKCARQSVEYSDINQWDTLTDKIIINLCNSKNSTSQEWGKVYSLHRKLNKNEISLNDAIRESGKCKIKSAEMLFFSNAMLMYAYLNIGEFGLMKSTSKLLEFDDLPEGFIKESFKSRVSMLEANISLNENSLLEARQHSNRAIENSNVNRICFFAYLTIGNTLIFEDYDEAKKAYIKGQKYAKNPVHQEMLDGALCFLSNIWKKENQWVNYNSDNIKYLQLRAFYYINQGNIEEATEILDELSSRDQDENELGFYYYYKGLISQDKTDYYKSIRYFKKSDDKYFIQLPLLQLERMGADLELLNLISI
Assay: Microscale thermophoresis
Assay type: binding
Settings: label-free MST, 200 nM AimR, peptide 9-4000 nM, pH 8.0, 23 °C, 3 runs

Substance: GMPRGA
- binding to phi3T AimR (in words): did not show specific binding to the phi3T AimR receptor
